# Test results reported in patent US20250170130A1, “MODULATORS OF MYC FAMILY PROTO-ONCOGENE PROTEIN” (Nalo Therapeutics, priority 2022, published 2025).
# Where two headings read alike, the source gives them in different places.
# How the values were obtained:
# MycC = target: T1, MycC (Homo sapiens, UniProt P01106); assay: Degradation of MycC protein in L363 cells, JESS/Western blot of lysates; assay type: cell-based; conditions: L-363, 24 h; for Dmax at 0.5 µM: read-out: % Degradation of MycC (L-363) 24 h, 0.5 μM; for Dmax at 1 µM: read-out: % Degradation of MycC (L-363) 24 h, 1 μM; for Dmax at 3 µM: read-out: % Degradation of MycC (L-363) 24 h, 3 μM; for Dmax at 6 µM: read-out: % Degradation of MycC (L-363) 24 h, 6 μM
# T1 construct: endogenous in cells; host or cells: L363
# T1 sequence (P01106 whole entry): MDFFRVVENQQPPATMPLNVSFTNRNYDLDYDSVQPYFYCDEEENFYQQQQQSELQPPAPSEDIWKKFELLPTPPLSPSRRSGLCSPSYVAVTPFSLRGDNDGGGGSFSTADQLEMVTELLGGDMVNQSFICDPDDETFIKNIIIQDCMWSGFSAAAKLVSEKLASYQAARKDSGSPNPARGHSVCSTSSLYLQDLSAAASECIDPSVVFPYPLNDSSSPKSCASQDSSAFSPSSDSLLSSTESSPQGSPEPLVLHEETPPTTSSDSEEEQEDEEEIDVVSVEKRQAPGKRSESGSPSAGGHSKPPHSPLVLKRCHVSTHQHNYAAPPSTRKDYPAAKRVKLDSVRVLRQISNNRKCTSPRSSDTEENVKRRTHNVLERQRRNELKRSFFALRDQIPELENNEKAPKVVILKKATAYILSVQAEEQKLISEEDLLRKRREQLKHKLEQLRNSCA
# Procedure, shortened: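 L363 suspension cells were seeded at 1E6 cells per well and exposed to compound (stock 10 mM in DMSO) for 24 hrs. Cells were collected, spun down, rinsed with PBS, lysed in RIPA buffer cocktail on ice, clarified and kept at −80 degrees. Lysate protein was quantified by BCA, and c-myc was measured on JESS by chemiluminescence with tubulin and GAPDH loading controls in the NIR channel.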
# MycN = target: T2, MycN (Homo sapiens, UniProt P04198); assay: Degradation of MycN protein in SK-N-BE(2) cells, JESS/Western blot of lysates; assay type: cell-based; conditions: SKNBE2, 24 h; for Dmax at 0.5 µM: read-out: % Degradation of MycN (SKNBE2) 24 h, 0.5 μM; for Dmax at 1 µM: read-out: % Degradation of MycN (SKNBE2) 24 h, 1 μM; for Dmax at 3 µM: read-out: % Degradation of MycN (SKNBE2) 24 h, 3 μM; for Dmax at 6 µM: read-out: % Degradation of MycN (SKNBE2) 24 h, 6 μM
# T2 construct: endogenous in cells; host or cells: SK-N-BE(2)
# T2 sequence (P04198 1-464): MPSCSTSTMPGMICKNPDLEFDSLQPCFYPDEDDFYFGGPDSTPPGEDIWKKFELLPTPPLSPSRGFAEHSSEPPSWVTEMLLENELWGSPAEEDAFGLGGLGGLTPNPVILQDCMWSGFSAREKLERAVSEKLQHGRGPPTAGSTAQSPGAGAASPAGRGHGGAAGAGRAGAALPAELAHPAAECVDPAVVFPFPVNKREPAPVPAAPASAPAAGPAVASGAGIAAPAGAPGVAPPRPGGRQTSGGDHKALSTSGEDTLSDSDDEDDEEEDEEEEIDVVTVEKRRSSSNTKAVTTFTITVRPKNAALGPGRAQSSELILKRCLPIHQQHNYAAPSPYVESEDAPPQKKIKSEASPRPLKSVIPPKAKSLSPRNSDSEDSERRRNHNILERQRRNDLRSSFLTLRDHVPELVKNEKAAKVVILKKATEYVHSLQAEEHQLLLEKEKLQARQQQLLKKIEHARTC
# Procedure, shortened: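 SK-N-BE(2) adherent cells (5E5 per well of a 6 well dish) were grown 24 hrs, then exposed to compounds diluted 1 in 20 in media, with DMSO controls, for 24 hrs. Cells were scraped, pelleted, PBS washed and lysed in RIPA buffer cocktail; after BCA protein quantitation, n-myc was detected by chemiluminescence on JESS/Western blot with tubulin and GAPDH loading controls read in the near infra red channel.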
"Dmax at 0.5 µM (MycC; L-363 cells, 24 h) [%]","Dmax at 1 µM (MycC; L-363 cells, 24 h, 1 μM) [%]","Dmax at 3 µM (MycC; L-363 cells, 24 h, 3 μM) [%]","Dmax at 6 µM (MycC; L-363 cells, 24 h, 6 μM) [%]","Dmax at 0.5 µM (MycN; SKNBE2 cells, 24 h, 0.5 μM) [%]","Dmax at 1 µM (MycN; SKNBE2 cells, 24 h, 1 μM) [%]","Dmax at 3 µM (MycN; SKNBE2 cells, 24 h, 3 μM) [%]","Dmax at 6 µM (MycN; SKNBE2 cells, 24 h, 6 μM) [%]",SMILES,Dmax at 1 µM (MycC) [%],Dmax at 3 µM (MycC) [%],Dmax at 6 µM (MycC) [%],Dmax at 0.5 µM (MycN) [%],Dmax at 1 µM (MycN) [%],Dmax at 3 µM (MycN) [%],Dmax at 6 µM (MycN) [%]
20 to 49,50 to 79,80 to 100,80 to 100,80 to 100,80 to 100,80 to 100,80 to 100,"NC[C@H]1CCCN(c2nccc(Nc3cc(C4CC4)[nH]n3)n2)C1 [Compound 29, 2-[(3R)-3-(Aminomethyl)-1-piperidyl]-N-(5-cyclopropyl-1H-pyrazol-3-yl)pyrimidin-4-amine]",,,,,,,
,,,,,,,,"NCC12CC(C1)N(c1nccc(Nc3cc(C4CC4)[nH]n3)n1)C2 [Compound 30, 2-[4-(aminomethyl)-2-azabicyclo[2.1.1]hexan-2-yl]-N-(5-cyclopropyl-1H-pyrazol-3-yl)pyrimidin-4-amine]",20 to 49,80 to 100,80 to 100,< 20,50 to 79,80 to 100,80 to 100
,,80 to 100,80 to 100,80 to 100,80 to 100,80 to 100,80 to 100,"CNCC12CC(C1)N(c1nccc(Nc3cc(C4CCCC4)[nH]n3)n1)C2 [Compound 31, N-(5-cyclopentyl-1H-pyrazol-3-yl)-2-[4-(methylaminomethyl)-2-azabicyclo[2.1.1]hexan-2-yl]pyrimidin-4-amine]",,,,,,,
,< 20,50 to 79,80 to 100,20 to 49,50 to 79,80 to 100,80 to 100,"CNC[C@H]1CCN(c2nccc(Nc3cc(C4CCCC4)[nH]n3)n2)C1 [Compound 35, N-(5-cyclopentyl-1H-pyrazol-3-yl)-2-[(3R)-3-(methylaminomethyl)pyrrolidin-1-yl]pyrimidin-4-amine]",,,,,,,
< 20,20 to 49,< 20,80 to 100,20 to 49,< 20,80 to 100,80 to 100,"CNC[C@@H]1CCN(c2nccc(Nc3cc(C4CCCC4)[nH]n3)n2)C1 [Compound 36, N-(5-cyclopentyl-1H-pyrazol-3-yl)-2-[(3S)-3-(methylaminomethyl)pyrrolidin-1-yl]pyrimidin-4-amine]",,,,,,,
,< 20,< 20,,20 to 49,20 to 49,50 to 79,80 to 100,"CNC[C@@H]1CCCN(c2nccc(Nc3cc(C4CC4)[nH]n3)n2)C1 [Compound 37, N-(5-cyclopropyl-1H-pyrazol-3-yl)-2-[(3S)-3-(methylaminomethyl)-1-piperidyl]pyrimidin-4-amine]",,,,,,,
< 20,< 20,< 20,< 20,20 to 49,20 to 49,20 to 49,50 to 79,"CN1CC(C2CCN(c3nccc(Nc4cc(C5CC5)[nH]n4)n3)C2)C1 (centres unmarked) [Compound 38, N-(5-Cyclopropyl-1H-pyrazol-3-yl)-2-[3-(1-methylazetidin-3-yl)pyrrolidin-1-yl]pyrimidin-4-amine]",,,,,,,
20 to 49,< 20,20 to 49,< 20,20 to 49,20 to 49,20 to 49,50 to 79,CN1CC2(CCCN(c3nccc(Nc4cc(C5CC5)[nH]n4)n3)C2)C1 [Compound 43],,,,,,,
,,< 20,80 to 100,,< 20,20 to 49,80 to 100,"CN1CC2(CCN(c3nccc(Nc4cc(C5CC5)[nH]n4)n3)CC2)C1 [Compound 44, N-(5-Cyclopropyl-1H-pyrazol-3-yl)-2-(2-methyl-2,7-diazaspiro[3.5]nonan-7-yl)pyrimidin-4-amine]",,,,,,,
80 to 100,80 to 100,80 to 100,80 to 100,80 to 100,80 to 100,80 to 100,80 to 100,"CNCC12CCC(C1)N(c1nccc(Nc3cc(C4CC4)[nH]n3)n1)C2 (centres unmarked) [Compound 45, N-(5-Cyclopropyl-1H-pyrazol-3-yl)-2-[4-(methylaminomethyl)-2-azabicyclo[2.2.1]heptan-2-yl]pyrimidin-4-amine]",,,,,,,
,20 to 49,< 20,20 to 49,< 20,< 20,< 20,< 20,"CN(C)CCCN(C)c1nccc(Nc2cc(C3CC3)[nH]n2)n1 [Compound 48, N^4-(5-cyclopropyl-1H-pyrazol-3-yl)-N^2-[3-(dimethylamino)propyl]-N^2-methyl-pyrimidine-2,4-diamine]",,,,,,,
,< 20,20 to 49,20 to 49,< 20,,< 20,20 to 49,"c1cc(Nc2cc(C3CC3)[nH]n2)nc(N2CC(C3CNC3)C2)n1 [Compound 64, 2-[3-(Azetidin-3-yl)azetidin-1-yl]-N-(5-cyclopropyl-1H-pyrazol-3-yl)pyrimidin-4-amine]",,,,,,,
< 20,< 20,< 20,50 to 79,< 20,< 20,20 to 49,50 to 79,"CN1CC(C2CN(c3nccc(Nc4cc(C5CCCC5)[nH]n4)n3)C2)C1 [Compound 65, N-(5-Cyclopentyl-1H-pyrazol-3-yl)-2-[3-(1-methylazetidin-3-yl)azetidin-1-yl]pyrimidin-4-amine]",,,,,,,
< 20,,80 to 100,80 to 100,,80 to 100,80 to 100,80 to 100,"NCC12CC(C1)N(c1nccc(Nc3cc(C4CCCC4)[nH]n3)n1)C2 [Compound 66, 2-[4-(aminomethyl)-2-azabicyclo[2.1.1]hexan-2-yl]-N-(5-cyclopentyl-1H-pyrazol-3-yl)pyrimidin-4-amine]",,,,,,,

SMILES,"Dmax at 0.5 µM (MycC; L-363 cells, 24 h) [%]","Dmax at 1 µM (MycC; L-363 cells, 24 h, 1 μM) [%]","Dmax at 3 µM (MycC; L-363 cells, 24 h, 3 μM) [%]","Dmax at 6 µM (MycC; L-363 cells, 24 h, 6 μM) [%]","Dmax at 0.5 µM (MycN; SKNBE2 cells, 24 h, 0.5 μM) [%]","Dmax at 1 µM (MycN; SKNBE2 cells, 24 h, 1 μM) [%]","Dmax at 3 µM (MycN; SKNBE2 cells, 24 h, 3 μM) [%]","Dmax at 6 µM (MycN; SKNBE2 cells, 24 h, 6 μM) [%]",Dmax at 1 µM (MycC) [%],Dmax at 3 µM (MycC) [%],Dmax at 6 µM (MycC) [%],Dmax at 0.5 µM (MycN) [%],Dmax at 1 µM (MycN) [%],Dmax at 3 µM (MycN) [%],Dmax at 6 µM (MycN) [%]
"CN1C[C@H]2CN(c3nccc(Nc4cc(C5CC5)[nH]n4)n3)C[C@H]21 [Compound 40, N-(5-Cyclopropyl-1H-pyrazol-3-yl)-2-[(1S,5S)-6-methyl-3,6-diazabicyclo[3.2.0]heptan-3-yl]pyrimidin-4-amine]",< 20,< 20,< 20,,,,< 20,< 20,,,,,,,
"c1cc(Nc2cc(C3CC3)[nH]n2)nc(N2CCC3(CCNC3)C2)n1 (centres unmarked) [Compound 42, N-(5-Cyclopropyl-1H-pyrazol-3-yl)-2-(2,7-diazaspiro[4.4]nonan-2-yl)pyrimidin-4-amine]",< 20,< 20,,80 to 100,20 to 49,50 to 79,50 to 79,80 to 100,,,,,,,
"c1cc(Nc2cc(C3CC3)[nH]n2)nc(N2C[C@H]3CN[C@H]3C2)n1 [Compound 53, N-(5-Cyclopropyl-1H-pyrazol-3-yl)-2-[(1R,5R)-3,6-diazabicyclo[3.2.0]heptan-3-yl]pyrimidin-4-amine]",,,20 to 49,< 20,,,,< 20,,,,,,,
